The source of these data is article PMC4703387, “Identification of the Calmodulin-Binding Domains of Fas Death Receptor” (PLoS ONE, 2016).

Experiment [1] has as its target T1, Ca^2+/CaM (Homo sapiens, UniProt P0DP23).
T1 construct: made in house
Conditions: reference not given; earlier FasDD study of the authors: ref [32]; read-out: Kd to Ca^2+/CaM, full-length FasDD; cited from earlier work. The source says: We have also shown that both lobes of Ca^2+/CaM are important for FasDD binding. […] Our attempt to identify the interaction regions by ... || To identify the Ca^2+/CaM-binding regions in large proteins is not a simple task. To predict the Ca^2+/CaM-binding site, a web-based tool is often used to provide favorable scores based on multiple criteria including hydropathy, α-helical propensity, hydrophobic residue content, residue charge, residue weight, helical class and occurrence of particular residues.[39] However, this method can still provide biased results.

For experiment [2], the target named is T1, Ca^2+/CaM. As to the kind of experiment: NMR titration (2D 1H-15N HSQC) of 15N-labeled Ca^2+/CaM with FasDD peptides. The experiment is classed as binding. The method, then:
(§1) NMR data were collected at 35°C on a Bruker Avance II (700 MHz ^1H) spectrometer equipped with a cryogenic triple-resonance probe, processed with NMRPIPE [35] and analyzed with NMRVIEW [36] or CCPN Analysis. […] For signal assignments of the complexes, ^13C-, ^15N-, or ^13C-/^15N-labeled Ca^2+/CaM at ~400–500 μM was mixed with unlabeled Fas-Pep1 (in 100% DMSO-d6) or Fas-Pep2 at 1.5:1 peptide:Ca^2+/CaM. […] The backbone atom resonances of Ca^2+/CaM complexes with Fas-Pep1 and Fas-Pep2 were assigned using HNCA, HN(CO)CA, HNCACB, HNCO, HN(CO)CACB and ^15N-edited NOESY-HSQC and TOCSY-HSQC experiments. These experiments have been also collected on ^15N-, or ^13C-/^15N-labeled Fas-Pep2 in complex with unlabeled Ca^2+/CaM to confirm the α-helical character of Fas-Pep2 when bound to Ca^2+/CaM. The chemical shifts of Ca^2+/CaM-bound Fas-Pep2 were used to predict its order parameters and secondary structure content in TALOS+.[38] Combined ^1H-^15N chemical shift changes were calculated as ΔδHN = [(ΔδH)^2+(ΔδN/5)^2]^1/2, where ΔδH and ΔδN are the ^1H and ^15N chemical shift changes, respectively. Kd values were calculated by non-linear least-square fitting algorithm in Origin software (OriginLab, Northampton, MA) using the equation: ΔδHN=ΔδHN^max((Kd+L0+P0)−((Kd+L0+P0)^2−4*P0*L0)^0.5)/(2*P0) where ΔδHN^max is the chemical shift change between complex and free protein, L0 total concentration of ligand, and P0 total concentration of protein.
To gain insights into the molecular elements of Ca^2+/CaM–FasDD interaction and to identify the interaction interface, we have utilized NMR chemical shift perturbation (CSP) as detected in ^1H-^15N heteronuclear single quantum coherence (HSQC) spectra. These experiments not only allow for identification of residues involved in binding but can also provide information on the induced conformational changes within proteins. 2D ^1H-^15N HSQC data obtained for a uniformly ^15N-labeled Ca^2+/CaM upon titration with unlabeled Fas-Pep1 are shown in Fig 5. Addition of substoichiometric amounts of Fas-Pep1 (0.5:1 peptide:Ca^2+/CaM) led to a decrease in intensity for a significant number of ^1H-^15N resonances accompanied by appearance of several new signals, consistent with a slow exchange on the NMR scale between the free and bound forms of Ca^2+/CaM. A steady decrease in intensity for the original ^1H-^15N signals and increase in intensity of the new signals was clearly observed with further addition of Fas-Pep1. Spectral changes ceased upon completion of peptide titration at 1.5:1 Fas-Pep1:Ca^2+/CaM ratio when only the new set of signals was present (Fig 5). […]
Only residues 214–227 have been detected in the x-ray structure of Ca^2+/CaM bound to FasDD(214–238); no electron density has been detected for residues 228–238.[40] […]

Experiment [3] deals with T1, Ca^2+/CaM. As to the kind of experiment: Isothermal titration calorimetry (ITC), Ca^2+/CaM titrated into peptide. It counts as binding. The note with it: Ca^2+/CaM 450 μM into 25 μM Fas-Pep1 (25°C) or 195 μM into 17 μM Fas-Pep2 (35°C); 50 mM HEPES (pH 7.0), 100 mM NaCl, 5 mM CaCl2; single set of identical sites; three replicates typically. The method, then:
Thermodynamic parameters of Ca^2+/CaM binding to Fas-Pep1 and Fas-Pep2 peptides were determined using an Auto-iTC200 microcalorimeter (Malvern Instruments). […] Heat of reaction of Ca^2+/CaM was measured over 19 injections at 25°C for Fas-Pep1 or 35°C for Fas-Pep2. Heat of dilution was measured by titrating Ca^2+/CaM into buffer. Data analysis was performed using the Microcal Origin package (ver. 8.1). Baseline corrections were performed by subtracting heat of dilution from the raw Ca^2+/CaM-peptide titration data. Binding curves were analyzed and dissociation constants (Kd) were determined by nonlinear least-square fitting of the baseline-corrected data. The formula used to fit the data as one binding site is: ΔQ(i)=Q(i)+(dVi/Vo)[(Q(i)+Q(i−1))/2]–Q(i–1) where ΔQ(i) is the heat released at i^th injection, Q(i) is the total heat content of the solution, dVi is injection volume, and Vo is total volume. Three replicate titration experiments were typically performed for each peptide.
Although it is recognized that the most frequent mechanism of CaM binding to target proteins involves the hydrophobic surfaces on the N- and C-terminal lobes,[23] electrostatic interactions also contribute to the formation and stabilization of CaM-protein complexes since CaM is acidic and CaM-binding motifs are often basic.[44, 45] The thermodynamic parameters of binding and the relative contribution of hydrophobic vs. electrostatic factors are often assessed by ITC methods, yielding various parameters such as dissociation constant (Kd), stoichiometry (n), enthalpy change (ΔH°) and entropy change (ΔS°). The thermodynamic parameters of Ca^2+/CaM binding to Fas-Pep1 and Fas-Pep2 were assessed by ITC.

A further experiment has as its target T2, Ca^2+/CaM-N (Homo sapiens, UniProt P0DP23).
T2 construct: ^15N-labled samples of the isolated Ca^2+/CaM-N and Ca^2+/CaM-C domains; made in house
As to the kind of experiment: NMR titration (2D 1H-15N HSQC) of isolated N-terminal lobe. The experiment is classed as binding. The note with it: NMR HSQC titration, one-site model, 35°C, 50 mM Tris-d11 (pH 7.0), 100 mM NaCl, 5 mM CaCl2; 15N-Ca^2+/CaM-N 150 μM. On the procedure:
as §1, with “The chemical shifts of Ca^2+/CaM-bound Fas-Pep2 were used to predict its order parameters and secondary structure content in TALOS+.[38]” left out, “protein. […]” for “protein.”

The target in another experiment is T3, Ca^2+/CaM-C (Homo sapiens, UniProt P0DP23).
T3 construct: ^15N-labled samples of the isolated Ca^2+/CaM-N and Ca^2+/CaM-C domains; made in house
As to the kind of experiment: NMR titration (2D 1H-15N HSQC) of isolated C-terminal lobe. The experiment is classed as binding. The note with it: NMR HSQC titration, one-site model, 35°C, 50 mM Tris-d11 (pH 7.0), 100 mM NaCl, 5 mM CaCl2; 15N-Ca^2+/CaM-C 150 μM. On the procedure:
as §1, with “The chemical shifts of Ca^2+/CaM-bound Fas-Pep2 were used to predict its order parameters and secondary structure content in TALOS+.[38]” left out, “protein. […]” for “protein.”

Where two headings read alike, the source gives them in different places. Where no end group is shown, it is not given here.

With “FasDD: intracellular death domain of Fas”, the Kd with Ca^2+/CaM [1] is about 2 µM.

Regarding “MTLSQVKGFVRKNGV [FasDD(224–238), synthetic FasDD peptide spanning residues 224–238; …]”, the “binding to Ca^2+/CaM by CSPs” value on Ca^2+/CaM [2] (1H-15N HSQC titration, 15N-Ca^2+/CaM 100 μM, 35°C, pH 7.0) is on record as “Numerous ^1H-^15N signals exhibited significant CSPs in the HSQC spectra (S7 Fig), indicating direct binding”. The “lobe preference on Ca^2+/CaM” value at Ca^2+/CaM [2] (1H-15N HSQC, 15N-Ca^2+/CaM 100 μM) is “appears to bind to the C-terminal domain of Ca^2+/CaM”. Moreover, at Ca^2+/CaM [2] (1H-15N HSQC, 15N-Ca^2+/CaM 100–150 μM, 35°C, pH 7.0), the “NMR exchange regime with Ca^2+/CaM” value was “fast exchange”.

Consider “SDVDLSKYITTIAGVMTLSQVKGFVRKNGVN [Fas-Pep1]”, for which the Kd is 0.3 µM on Ca^2+/CaM [3], about 268 µM at Ca^2+/CaM-N and 76 µM at Ca^2+/CaM-C.
